Results on 30 compounds are retold here after patent US7932262B2 (Novartis AG, priority 2006, dated 2011).

Experiment [1] deals with T1, PDK1 kinase (Homo sapiens, UniProt O15530).
T1 sequence (O15530 1-556): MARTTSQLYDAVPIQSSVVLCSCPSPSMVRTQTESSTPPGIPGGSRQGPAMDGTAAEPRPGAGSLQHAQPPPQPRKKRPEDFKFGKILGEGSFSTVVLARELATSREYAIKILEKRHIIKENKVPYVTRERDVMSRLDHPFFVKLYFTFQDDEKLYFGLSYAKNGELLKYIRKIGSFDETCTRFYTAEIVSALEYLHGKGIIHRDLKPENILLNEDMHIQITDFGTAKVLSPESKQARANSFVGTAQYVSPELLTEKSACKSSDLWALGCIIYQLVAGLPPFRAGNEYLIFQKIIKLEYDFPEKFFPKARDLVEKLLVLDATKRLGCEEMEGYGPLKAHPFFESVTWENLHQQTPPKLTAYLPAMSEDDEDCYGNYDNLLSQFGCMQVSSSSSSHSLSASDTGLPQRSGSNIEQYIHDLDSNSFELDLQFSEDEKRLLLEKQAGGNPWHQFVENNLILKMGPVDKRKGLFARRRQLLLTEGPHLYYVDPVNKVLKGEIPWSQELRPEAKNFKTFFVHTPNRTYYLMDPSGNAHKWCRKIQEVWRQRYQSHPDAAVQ
Kind of experiment: PDK1 Kinase Alpha Screen Assay. The experiment is classed as biochemical. The note with it: PDK1 Kinase Alpha Screen Assay; read-out: PDK1 IC50. The method, boiled down: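 Biotinylated PDK1-4 peptide (50 nM) phosphorylated by PDK1 with 10 uM ATP in pH 7.5 Tris/MgCl2/DTT buffer, 2.5% DMSO, for 3-18 hours. EDTA stop, then AlphaScreen detection with phospho-(Ser/Thr) PKA substrate antibody and protein A/streptavidin beads after overnight room-temperature development.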

Experiment [2] relates to PC-3 cells. Kind of experiment: Cell Proliferation Assay (Cell Titer Glo), PC-3 cell line. The experiment is classed as cell-based. The note with it: Homo sapiens, PC-3, Cell Proliferation Assay, PC3; read-out: CPEC50 PC3. The method, boiled down: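 PC-3 cells, 1000 cells/well, left to adhere 3-5 h, then exposed for 3 days at 37° C to compounds as 1:3 serial dilutions from 500× DMSO stocks diluted in growth medium. Medium then replaced with fresh medium and viability read by Cell Titer Glo luminescence.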

pEC50, pIC50: −log10 of the molar value.

Usually pIC50 stands for the negative decadic logarithm of the IC50, by convention in mol/L.

Consider `Fc1cc(Nc2ncc3ccc(OC4CCNCC4)cc3n2)ccc1N1CCOCC1` [Compound 593, N-(3-fluoro-4-morpholinophenyl)-7-(piperidin-4-yloxy)quinazolin-2-amine], for which the pIC50 in experiment [1] was above 5.30. The pEC50 in experiment [2] was above 5.30.
For `Clc1cc(Nc2ncc3ccc(OC4CCNCC4)cc3n2)ccc1N1CCOCC1` [Compound 594, N-(3-chloro-4-morpholinophenyl)-7-(piperidin-4-yloxy)quinazolin-2-amine], the pIC50 in experiment [1] is above 5.30. Also, the pEC50 in experiment [2] is above 5.30.
In the case of `O=C(c1ccc(Nc2ncc3c(Cl)ccc(OC4CCNCC4)c3n2)cc1)N1CCOCC1` [Compound 595, (4-(5-chloro-8-(piperidin-4-yloxy)quinazolin-2-ylamino)phenyl)(morpholino)methanone], the pIC50 in experiment [1] is above 5.30. The pEC50 in experiment [2] was 5.00 to 5.30.
`Fc1cc(Nc2ncc3ccc(OC4CCNCC4)cc3n2)ccc1Br` [Compound 596, N-(4-bromo-3-fluorophenyl)-7-(piperidin-4-yloxy)quinazolin-2-amine]: the pIC50 in experiment [1] is above 5.30. Besides, the pEC50 in experiment [2] is above 5.30.
Consider `Fc1cc(Nc2ncc3c(Cl)ccc(OC4CCNCC4)c3n2)ccc1N1CCOCC1` [Compound 597, 5-chloro-N-(3-fluoro-4-morpholinophenyl)-8-(piperidin-4-yloxy)quinazolin-2-amine], for which the pIC50 in experiment [1] was above 5.30. The pEC50 in experiment [2] is 5.00 to 5.30.
Take `Cn1cc(-c2ccc(Nc3ncc4ccc(OC5CCNCC5)cc4n3)cc2F)cn1` [Compound 598, N-(3-fluoro-4-(1-methyl-1H-pyrazol-4-yl)phenyl)-7-(piperidin-4-yloxy)quinazolin-2-amine]: the pIC50 in experiment [1] was above 5.30. Further, in experiment [2], the pEC50 was 5.00 to 5.30.
On the same counts, the results for `CC(C)NC(=O)c1ccc(Nc2ncc3c(Cl)ccc(OC4CCNCC4)c3n2)cc1` [Compound 599, 4-(5-chloro-8-(piperidin-4-yloxy)quinazolin-2-ylamino)-N-isopropylbenzamide] are above 5.30 and above 5.30.
Consider `Fc1cccc(Nc2ncc3c(Cl)ccc(OC4CCNCC4)c3n2)c1` [Compound 600, 5-chloro-N-(3-fluorophenyl)-8-(piperidin-4-yloxy)quinazolin-2-amine], for which the pIC50 in experiment [1] was above 5.30. Further, the pEC50 in experiment [2] was above 5.30.
As for `Clc1ccc(OC2CCNCC2)c2nc(Nc3cccc(N4CCOCC4)c3)ncc12` [Compound 601, 5-chloro-N-(3-morpholinophenyl)-8-(piperidin-4-yloxy)quinazolin-2-amine], the pIC50 in experiment [1] was above 5.30. Also, the pEC50 in experiment [2] is 5.00 to 5.30.
Taken in the same sequence, the figures for `Clc1cc(Nc2ncc3c(Cl)ccc(OC4CCNCC4)c3n2)ccc1N1CCOCC1` [Compound 602] were above 5.30 and above 5.30.
On the same counts, the results for `CC(C)NS(=O)(=O)c1ccc(Nc2ncc3c(Cl)ccc(OC4CCNCC4)c3n2)cc1` [Compound 603, 4-(5-chloro-8-(piperidin-4-yloxy)quinazolin-2-ylamino)-N-isopropylbenzenesulfonamide] are above 5.30 and above 5.30.
On the same counts, the results for `O=C(NC1CC1)c1ccc(Nc2ncc3c(Cl)ccc(OC4CCNCC4)c3n2)cc1` [Compound 604, 4-(5-chloro-8-(piperidin-4-yloxy)quinazolin-2-ylamino)-N-cyclopropylbenzamide] are above 5.30 and above 5.30.
Take `Clc1ccc(OC2CCNCC2)c2nc(Nc3ccc(N4CCOCC4)cc3)ncc12` [Compound 605, 5-chloro-N-(4-morpholinophenyl)-8-(piperidin-4-yloxy)quinazolin-2-amine]: the pIC50 in experiment [1] is above 5.30. Also, the pEC50 in experiment [2] is 5.00 to 5.30.
Taken in the same sequence, the figures for `O=S(=O)(c1ccc(Nc2ncc3c(Cl)ccc(OC4CCNCC4)c3n2)cc1)N1CCOCC1` [Compound 606, 5-chloro-N-(4-(morpholinosulfonyl)phenyl)-8-(piperidin-4-yloxy)quinazolin-2-amine] were above 5.30 and above 5.30.
For `CC(C)NS(=O)(=O)c1ccc(Nc2ncc3ccc(OC4CCNCC4)cc3n2)cc1` [Compound 607, N-isopropyl-4-(7-(piperidin-4-yloxy)quinazolin-2-ylamino)benzenesulfonamide], the pIC50 in experiment [1] is above 5.30. For the same compound, the pEC50 in experiment [2] was above 5.30.
On to `O=C(c1ccc(Nc2ncc3c(Cl)ccc(OC4CNC4)c3n2)cc1)N1CCOCC1` [Compound 608, (4-(8-(azetidin-3-yloxy)-5-chloroquinazolin-2-ylamino)phenyl)(morpholino)methanone], for which the pIC50 in experiment [1] is above 5.30. The pEC50 in experiment [2] is 5.00 to 5.30.
On to `Clc1ccc(OC2CNC2)c2nc(Nc3ccc(N4CCOCC4)cc3)ncc12` [Compound 609, 8-(azetidin-3-yloxy)-5-chloro-N-(4-morpholinophenyl)quinazolin-2-amine], for which the pIC50 in experiment [1] is above 5.30. Also, the pEC50 in experiment [2] was 5.00 to 5.30.
Take `Fc1cc(Nc2ncc3c(Cl)ccc(OC4CNC4)c3n2)ccc1N1CCOCC1` [Compound 610, 8-(azetidin-3-yloxy)-5-chloro-N-(3-fluoro-4-morpholinophenyl)quinazolin-2-amine]: the pIC50 in experiment [1] was above 5.30. Besides, the pEC50 in experiment [2] was 5.00 to 5.30.
On the same counts, the results for `Clc1cc(Nc2ncc3c(Cl)ccc(OC4CNC4)c3n2)ccc1N1CCOCC1` [Compound 611, 8-(azetidin-3-yloxy)-5-chloro-N-(3-chloro-4-morpholinophenyl)quinazolin-2-amine] are above 5.30 and above 5.30.
For the compound `CC(C)NC(=O)c1ccc(Nc2ncc3c(Cl)ccc(OC4CNC4)c3n2)cc1` [Compound 612, 4-(8-(azetidin-3-yloxy)-5-chloroquinazolin-2-ylamino)-N-isopropylbenzamide], the pIC50 in experiment [1] was above 5.30. In experiment [2], the pEC50 is 5.00 to 5.30.
On the same counts, the results for `O=C(NC1CC1)c1ccc(Nc2ncc3c(Cl)ccc(OC4CNC4)c3n2)cc1` [Compound 613, 4-(8-(azetidin-3-yloxy)-5-chloroquinazolin-2-ylamino)-N-cyclopropylbenzamide] are above 5.30 and above 5.30.
Taken in the same sequence, the figures for `c1cc(N2CCOCC2)ccc1Nc1ncc2ccc(OC3CCNCC3)cc2n1` [Compound 614, N-(4-morpholinophenyl)-7-(piperidin-4-yloxy)quinazolin-2-amine] were above 5.30 and above 5.30.
Taken in the same sequence, the figures for `CC(C)NS(=O)(=O)c1ccc(Nc2ncc3c(Cl)ccc(OC4CNC4)c3n2)cc1` [Compound 615, 4-(8-(azetidin-3-yloxy)-5-chloroquinazolin-2-ylamino)-N-isopropylbenzenesulfonamide] were above 5.30 and above 5.30.
For the compound `O=S(=O)(c1cccc(Nc2ncc3c(Cl)ccc(OC4CNC4)c3n2)c1)N1CCOCC1` [Compound 616, 8-(azetidin-3-yloxy)-5-chloro-N-(3-(morpholinosulfonyl)phenyl)quinazolin-2-amine], the pIC50 in experiment [1] was above 5.30. For the same compound, the pEC50 in experiment [2] was above 5.30.
`Clc1ccc(OC2CCNCC2)c2nc(Nc3cccc(-c4cc[nH]n4)c3)ncc12` [Compound 617, N-(3-(1H-pyrazol-3-yl)phenyl)-5-chloro-8-(piperidin-4-yloxy)quinazolin-2-amine]: in experiment [1], the pIC50 was above 5.30. Besides, the pEC50 in experiment [2] is 5.00 to 5.30.
Taken in the same sequence, the figures for `NS(=O)(=O)c1ccc(Nc2ncc3ccccc3n2)cc1` [Compound 618, 4-(quinazolin-2-ylamino)benzenesulfonamide] were above 5.30 and 5.00 to 5.30.
On the same counts, the results for `CC(C)N1CCC(Oc2cc3nc(Nc4ccc(N5CCOCC5)cc4)ncc3cc2-c2nccs2)CC1` [Compound 619, 7-(1-isopropylpiperidin-4-yloxy)-N-(4-morpholinophenyl)-6-(thiazol-2-yl)quinazolin-2-amine] are above 5.30 and above 5.30.
`CC(C)N1CCC(Oc2cc3nc(Nc4ccc(N5CCOCC5)cc4)ncc3cc2Br)CC1` [Compound 620, 6-bromo-7-(1-isopropylpiperidin-4-yloxy)-N-(4-morpholinophenyl)quinazolin-2-amine]: the pIC50 in experiment [1] is above 5.30. In addition, the pEC50 in experiment [2] is above 5.30.
Regarding `CC(C)N1CCC(Oc2cc3nc(Nc4ccc(N5CCOCC5)cc4)ncc3cc2-c2cn[nH]c2)CC1` [Compound 621, 7-(1-isopropylpiperidin-4-yloxy)-N-(4-morpholinophenyl)-6-(1H-pyrazol-4-yl)quinazolin-2-amine], in experiment [1], the pIC50 is above 5.30. Also, the pEC50 in experiment [2] was above 5.30.
For the compound `C#Cc1cc(-c2ccc(NCCN3CCCC3)nc2)c2nc(Nc3ccc(S(N)(=O)=O)cc3)ncc2c1` [Compound 634, 4-(6-ethynyl-8-(6-(2-(pyrrolidin-1-yl)ethylamino)pyridin-3-yl)quinazolin-2-ylamino)benzenesulfonamide], in experiment [1], the pIC50 was above 5.30. Further, in experiment [2], the pEC50 was above 5.30.
